These results are taken from US10239873B2, “7-azaindole or 4,7-diazaindole derivatives as IKKϵ epsilon and TBK1 inhibitor and pharmaceutical composition comprising same” (GREEN CROSS CORPORATION, priority 2015, dated 2019).

The structures appear in SMILES notation.

For this experiment, the target named is T1, TBK1 (Homo sapiens, UniProt Q9UHD2).
T1 construct: purchased Promega (Invitrogen is also named in the same bracket) V4158; PR8031B; V3991 (not assigned to the two kinases)
T1 sequence (Q9UHD2 1-729): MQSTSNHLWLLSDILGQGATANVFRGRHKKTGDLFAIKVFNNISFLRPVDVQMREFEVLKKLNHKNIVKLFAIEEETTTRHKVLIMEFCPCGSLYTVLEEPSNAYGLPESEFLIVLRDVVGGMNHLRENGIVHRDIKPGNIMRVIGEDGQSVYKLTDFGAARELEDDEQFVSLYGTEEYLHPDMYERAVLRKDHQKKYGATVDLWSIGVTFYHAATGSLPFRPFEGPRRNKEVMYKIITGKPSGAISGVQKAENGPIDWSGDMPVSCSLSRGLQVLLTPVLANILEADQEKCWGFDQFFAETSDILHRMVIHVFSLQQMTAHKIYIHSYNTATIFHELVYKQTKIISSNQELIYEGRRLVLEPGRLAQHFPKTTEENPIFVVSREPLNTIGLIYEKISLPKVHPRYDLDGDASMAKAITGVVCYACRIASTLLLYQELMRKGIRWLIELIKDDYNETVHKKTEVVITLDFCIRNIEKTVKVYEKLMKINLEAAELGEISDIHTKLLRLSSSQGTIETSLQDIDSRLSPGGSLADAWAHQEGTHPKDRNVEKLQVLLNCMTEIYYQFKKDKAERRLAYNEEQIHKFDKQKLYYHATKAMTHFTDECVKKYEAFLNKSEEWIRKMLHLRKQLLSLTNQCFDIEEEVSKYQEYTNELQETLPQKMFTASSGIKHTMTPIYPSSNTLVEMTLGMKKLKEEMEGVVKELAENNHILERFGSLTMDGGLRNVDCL
In words: ADP-Glo Kinase Assay, inhibition activity on TBK1. The experiment is classed as biochemical. The procedure: Inhibition activities on IKKϵ and TBK1 were evaluated using the compounds of Examples 1 to 250.
The inhibition activities on IKKϵ and TBK1 were measured by a luminometer, IKKϵ/TBK1 Kinase Enzyme System (Promega, Ca# V4158; Invitrogen, PR8031B, Promega, Ca# V3991) and ADP-Glo Kinase Assay using ADP-Glo™ Kinase Analysis Kit (Promega, Ca# V9101) and a kinase reaction buffer [40 mM Tris(pH 7.5), 20 mM MgCl2, 0.1 mg/mL BSA] in accordance with the manufacturer's protocol.
In general terms: ADP-Glo first removes unused ATP, then detects ADP through luciferase.
The molecule `CC(C)NC(=O)N1CC=C(c2c[nH]c3ncc(-c4ccc(CN5CCOCC5)s4)cc23)CC1` [Example 34, N-isopropyl-4-(5-(5-(morpholinomethyl)thiophen-2-yl)-1H-pyrrolo[2,3-b]pyridin-3-yl)-5,6-dihydropyridine-1(2H)-carboxamide] showed an IC50 of 0.73 nM. In other words, the sub-nanomolar range. Regarding `CCC(C)NC(=O)N1CC=C(c2c[nH]c3ncc(-c4ccc(CN5CCOCC5)s4)cc23)CC1` (stereo not shown) [Example 43, N-(sec-butyl)-4-(5-(5-(morpholinomethyl)thiophen-2-yl)-1H-pyrrolo[2,3-b]pyridin-3-yl)-5,6-dihydropyridine-1(2H)-carboxamide], the half-maximal inhibitory concentration (IC50) is 5.5 nM.

`CCC(C)NC(=O)N1CC=C(c2c[nH]c3ncc(-c4ccc(OC)c(OC)c4)cc23)CC1` (stereo not shown) [Example 44, N-(sec-butyl)-4-(5-(3,4-dimethoxyphenyl)-1H-pyrrolo[2,3-b]pyridin-3-yl)-5,6-dihydropyridine-1(2H)-carboxamide] gave a half-inhibitory concentration (IC50) of 7.5 nM. This IC50 and that of the molecule before are within 1.5-fold of each other. The same measure for `COc1ccc(-c2cnc3[nH]cc(C4=CCN(C(=O)NC5CCCC5)CC4)c3c2)cc1OC` [Example 49, N-cyclopentyl-4-(5-(3,4-dimethoxyphenyl)-1H-pyrrolo[2,3-b]pyridin-3-yl)-5,6-dihydropyridine-1(2H)-carboxamide]: 32 nM; for `CS(=O)(=O)c1ccc(-c2cnc3[nH]cc(C4=CCN(C(=O)NC5CCCC5)CC4)c3c2)cc1` [Example 51, N-cyclopentyl-4-(5-(4-(methylsulfonyl)phenyl)-1H-pyrrolo[2,3-b]pyridin-3-yl)-5,6-dihydropyridine-1(2H)-carboxamide]: 51 nM; for `CCS(=O)(=O)c1ccc(-c2cnc3[nH]cc(C4=CCN(C(=O)NC5CCCC5)CC4)c3c2)cc1` [Example 53, N-cyclopentyl-4-(5-(4-(ethylsulfonyl)phenyl)-1H-pyrrolo[2,3-b]pyridin-3-yl)-3,6-dihydropyridine-1(2H)-carboxamide]: 66 nM.

Molecule `NS(=O)(=O)c1cccc(-c2cnc3[nH]cc(C4=CCN(C(=O)NC5CCCC5)CC4)c3c2)c1` [Example 57, N-cyclopentyl-4-(5-(3-sulfamoylphenyl)-1H-pyrrolo[2,3-b]pyridin-3-yl)-5,6-dihydropyridine-1(2H)-carboxamide] yielded an IC50 of 31 nM. In the case of `NS(=O)(=O)c1ccc(-c2cnc3[nH]cc(C4=CCN(C(=O)NC5CCCC5)CC4)c3c2)cc1` [Example 58, N-cyclopentyl-4-(5-(4-sulfamoylphenyl)-1H-pyrrolo[2,3-b]pyridin-3-yl)-5,6-dihydropyridine-1(2H)-carboxamide] it was 61 nM. In the case of `CNS(=O)(=O)c1cccc(-c2cnc3[nH]cc(C4=CCN(C(=O)NC5CCCC5)CC4)c3c2)c1` [Example 59, N-cyclopentyl-4-(5-(3-(N-methylsulfamoyl)phenyl)-1H-pyrrolo[2,3-b]pyridin-3-yl)-5,6-dihydropyridine-1(2H)-carboxamide] it was 30 nM. The same measure for `CNS(=O)(=O)c1ccc(-c2cnc3[nH]cc(C4=CCN(C(=O)NC5CCCC5)CC4)c3c2)cc1` [Example 60, N-cyclopentyl-4-(5-(4-(N-methylsulfamoyl)phenyl)-1H-pyrrolo[2,3-b]pyridin-3-yl)-5,6-dihydropyridine-1(2H)-carboxamide]: 38 nM. Molecule `O=C(NC1CCCC1)N1CC=C(c2c[nH]c3ncc(-c4ccc(S(=O)(=O)N5CCOCC5)cc4)cc23)CC1` [Example 61, N-cyclopentyl-4-(5-(4-(morpholinosulfonyl)phenyl)-1H-pyrrolo[2,3-b]pyridin-3-yl)-5,6-dihydropyridine-1(2H)-carboxamide] came in with an IC50 of 86 nM.

Molecule `O=C(NC1CCCC1)N1CC=C(c2c[nH]c3ncc(-c4cccc(S(=O)(=O)N5CCOCC5)c4)cc23)CC1` [Example 62, N-cyclopentyl-4-(5-(3-(morpholinosulfonyl)phenyl)-1H-pyrrolo[2,3-b]pyridin-3-yl)-5,6-dihydropyridine-1(2H)-carboxamide] yielded an IC50 of 91 nM.

Consider `O=C(NC1CCCC1)N1CC=C(c2c[nH]c3ncc(-c4ccc(CCN5CCOCC5)cc4)cc23)CC1` [Example 64, N-cyclopentyl-4-(5-(4-(2-morpholinoethyl)phenyl)-1H-pyrrolo[2,3-b]pyridin-3-yl)-5,6-dihydropyridine-1(2H)-carboxamide], for which half-maximal inhibition (IC50) was put at 110 nM. The same measure for `CC(=O)Nc1ccc(N)c(-c2cnc3[nH]cc(C4=CCN(C(=O)NC5CCCC5)CC4)c3c2)c1` [Example 65, 4-(5-(5-Acetamido-2-aminophenyl)-1H-pyrrolo[2,3-b]pyridin-3-yl)-N-cyclopentyl-5,6-dihydropyridine-1(2H)-carboxamide]: 1900 nM; for `O=C(NCc1ccco1)c1ccc(-c2cnc3[nH]cc(C4=CCN(C(=O)NC5CCCC5)CC4)c3c2)cc1` [Example 66, N-cyclopentyl-4-(5-(4-((furan-2-ylmethyl)carbamoyl)phenyl)-1H-pyrrolo[2,3-b]pyridin-3-yl)-5,6-dihydropyridine-1(2H)-carboxamide]: 250 nM.

For the molecule `O=C(NCc1ccco1)c1cccc(-c2cnc3[nH]cc(C4=CCN(C(=O)NC5CCCC5)CC4)c3c2)c1` [Example 67, N-cyclopentyl-4-(5-(3-((furan-2-ylmethyl)carbamoyl)phenyl)-1H-pyrrolo[2,3-b]pyridin-3-yl)-5,6-dihydropyridine-1(2H)-carboxamide], inhibition was half-maximal at 410 nM (IC50). The same measure for `O=C(NC1CCCC1)N1CC=C(c2c[nH]c3ncc(-c4cccc(OCCN5CCOCC5)c4)cc23)CC1` [Example 68, N-cyclopentyl-4-(5-(3-(2-morpholinoethoxy)phenyl)-1H-pyrrolo[2,3-b]pyridin-3-yl)-5,6-dihydropyridine-1(2H)-carboxamide]: 64 nM; for `O=C(NC1CCCC1)N1CC=C(c2c[nH]c3ncc(-c4ccc(OCCN5CCOCC5)cc4)cc23)CC1` [Example 69, N-cyclopentyl-4-(5-(4-(2-morpholinoethoxy)phenyl)-1H-pyrrolo[2,3-b]pyridin-3-yl)-5,6-dihydropyridine-1(2H)-carboxamide]: 65 nM. In the case of `O=C(NC1CCCC1)N1CC=C(c2c[nH]c3ncc(-c4ccc(OCCCN5CCOCC5)cc4)cc23)CC1` [Example 70, N-cyclopentyl-4-(5-(4-(3-morpholinopropoxy)phenyl)-1H-pyrrolo[2,3-b]pyridin-3-yl)-5,6-dihydropyridine-1(2H)-carboxamide] it was 400 nM; in that of `CN1CCN(Cc2ccc(-c3cnc4[nH]cc(C5=CCN(C(=O)NC6CCCC6)CC5)c4c3)s2)CC1` [Example 71, N-cyclopentyl-4-(5-(5-((4-methylpiperazin-1-yl)methyl)thiophen-2-yl)-1H-pyrrolo[2,3-b]pyridin-3-yl)-5,6-dihydropyridine-1(2H)-carboxamide], 5 nM. In the case of `O=C(NC1CCCC1)N1CC=C(c2c[nH]c3ncc(-c4csc(CN5CCOCC5)c4)cc23)CC1` [Example 73, N-cyclopentyl-4-(5-(5-(morpholinomethyl)thiophen-3-yl)-1H-pyrrolo[2,3-b]pyridin-3-yl)-5,6-dihydropyridine-1(2H)-carboxamide] it was 620 nM; in that of `O=C(NC1CCCC1)N1CC=C(c2c[nH]c3ncc(-c4ccc(C(=O)N5CCOCC5)s4)cc23)CC1` [Example 74, N-cyclopentyl-4-(5-(5-(morpholine-4-carbonyl)thiophen-2-yl)-1H-pyrrolo[2,3-b]pyridin-3-yl)-5,6-dihydropyridine-1(2H)-carboxamide], 53 nM.

For orientation: IC50 means the midpoint of a concentration-inhibition curve. Read a high IC50 as lower potency.
